The record followed here is patent publication US6872721B2, “Derivatives of 2,3,6,7,12,12a-hexahydropyrazino-[1′,2′:1,6]pyrido[3,4b]-indole-1,4-dione” (Lilly ICOS LLC, priority 2000, dated 2005).

One series deals with human recombinant-PDE5 (Homo sapiens, UniProt O76074). The series can be described thus: Inhibitory effect on cGMP-PDE (PDE5 IC50, one-step assay). The class given is biochemical. Conditions: in vitro, 0.15 μM 8-[H3]-cGMP, 30 min incubation. The procedure:
The compounds of structural formula (I) were tested for an ability to inhibit PDE5. The ability of a compound to inhibit PDE5 activity is related to the IC50 value for the compound, i.e., the concentration of inhibitor required for 50% inhibition of enzyme activity. The IC50 value for compounds of structural formula (I) were determined using recombinant human PDE5.
cGMP-PDE activity of compounds of the present invention was measured using a one-step assay adapted from Wells et al., Biochim. Biophys. Acta, 384, 430 (1975). The reaction medium contained 50 mM Tris-HCl, pH 7.5, 5 mM magnesium acetate, 250 μg/ml 5′-Nucleotidase, 1 mM EGTA, and 0.15 μM 8-[H^3]-cGMP. Unless otherwise indicated, the enzyme used was a human recombinant-PDE5 (ICOS Corp., Bothell, Wash.).
Compounds of the invention were dissolved in DMSO finally present at 2% in the assay.

pIC50: −log10 of the molar value.

In the case of `CN1CC(=O)N2[C@H](c3ccc4c(c3)OCO4)c3[nH]c4c(OCc5ccccc5)cccc4c3C[C@@H]2C1=O` (racemic) [Example 8, (+−, cis)-6-Benzo[1,3]dioxol-5-yl-8-benzyloxy-2-methyl-2,3,6,7,12,12a-hexahydropyrazino[1′2′:1,6]pyrido[3,4-b]indole-1,4-dione], the melting point was in the range of 150 to 161 °C. The pIC50 on human recombinant-PDE5 is 7.43.

In turn, `CN1CC(=O)N2[C@H](c3ccc4c(c3)OCO4)c3[nH]c4cc(C#N)ccc4c3C[C@@H]2C1=O` (racemic) [Example 7, (+−, cis)-6-Benzo[1,3]dioxol-5-yl-2-methyl-1,4-dioxo-1,2,3,4,6,7,12,12a-octahydropyrazino[1′,2′:1,6]pyrido[3,4-b]indole-9-carbonitrile] yielded a melting point of 329 to 331 °C. The pIC50 on human recombinant-PDE5 was 8.15.

Regarding `COC(=O)c1ccc2c3c([nH]c2c1)[C@@H](c1ccc2c(c1)OCO2)N1C(=O)CN(C)C(=O)[C@H]1C3` (racemic) [Example 5, (+−, cis)-6-Benzo[1,3]dioxol-5-yl-2-methyl-1,4-dioxo-1,2,3,6,7,12,12a-octahydropyrazino[1′,2′:1,6]pyrido[3,4-b]indole-9-carboxylic acid methyl ester], the melting point lay within 294 to 295 °C. The pIC50 on human recombinant-PDE5 is 6.54.

For the compound `CN1CC(=O)N2[C@H](c3ccc4c(c3)OCO4)c3[nH]c4cc(-c5ccccc5)ccc4c3C[C@@H]2C1=O` (racemic) [Example 4, (+−, cis)-6-Benzo[1,3]dioxol-5-yl-2-methyl-9-phenyl-2,3,6,7,12,12a-hexahydropyrazino[1′,2′:1,6]pyrido[3,4-b]indole-1,4-dione], the melting point fell in the range of 198 to 208 °C. Moreover, the pIC50 at human recombinant-PDE5 is 8.22.

`COc1ccc2[nH]c3c(c2c1)C[C@@H]1C(=O)N(C)CC(=O)N1[C@@H]3c1ccc2c(c1)OCO2` (racemic) [Example 2, (trans)-6-(1,3-Benzodioxol-5-yl)-10-methoxy-2-methyl-2,3,6,7,12,12a-hexahydropyrazino[1′,2′:1,6]pyrido[3,4-b]indole-1,4-dione] gave a melting point of 259 to 261 °C. In addition, on human recombinant-PDE5, the pIC50 is 6.40.

`CN1CC(=O)N2[C@H](c3ccc4c(c3)OCO4)c3[nH]c4ccc(O)cc4c3C[C@@H]2C1=O` (racemic) [Example 1, (+/−, cis)-6-Benzo[1,3]dioxol-5-yl-10-hydroxy-2-methyl-2,3,6,7,12,12a-hexahydropyrazino[1′,2′:1,6)pyrido[3,4-b]indole-1,4-dione]: the melting point is 322 to 328 °C. In addition, the pIC50 at human recombinant-PDE5 is 7.32.

Compound `COc1ccc2c3c([nH]c2c1)[C@@H](c1ccc2c(c1)OCO2)N1C(=O)CN(C)C(=O)[C@H]1C3` [Example 3, (6R,12aR)-6-Benzo[1,3]dioxol-5-yl-9-methoxy-2-methyl-2,3,6,7,12,12a-hexahydropyrazino-[1′,2′:1,6]pyrido[3,4-b]indole-1,4-dione] came in with a melting point of 288 to 293 °C. Besides, the pIC50 on human recombinant-PDE5 is 8.92.

Regarding `CN1CC(=O)N2[C@H](c3ccc4c(c3)OCO4)c3[nH]c4cc(C(=O)O)ccc4c3C[C@H]2C1=O` (racemic) [Example 6, (+−,trans)-6-Benzo[1,3]dioxol-5-yl-2-methyl-1,4-dioxo-1,2,3,4,6,7,12,12a-octahydropyrazino[1′,2′:1,6]pyrido[3,4-b]indole-9-carobxylic acid], the melting point is 246 to 252 °C. The pIC50 on human recombinant-PDE5 is 6.82.

As usually defined, the pIC50 is the IC50 on a negative log10 scale, so that one unit is a factor of ten. By melting point is commonly meant the temperature of the solid-liquid transition.
